Where two headings read alike, the source gives them in different places. Some results are limits rather than exact numbers.

Consider 8 compounds from paper PMC5515844, “A new Prenylated Flavonoid induces G0/G1 arrest and apoptosis through p38/JNK MAPK pathways in Human Hepatocellular Carcinoma cells” (Scientific Reports, 2017).

Assay [1] relates to nine human cancer cell lines and one normal hepatic cell line. The experiment in a line: MTT cytotoxicity assay, summary over the cell line panel. The format is cell-based. How it is done: (§1) HepG2 and Hep3B (human hepatoma cells), Bcap37 and MCF-7 (human breast cancer cells), TE-1 (human esophageal cancer cells), A549 (human lung carcinoma cells), U251 and U87 (human glioma cells), were cultured in Dulbecco’s modified Eagle’s medium (DMEM) supplemented with 10% fetal bovine serum (FBS) and 1% penicillin/streptomycin (10000 U/mL penicillin, 10000 μg/ml streptomycin). SH-SY5Y (human neuroblastoma cells), LO2 (human normal liver cell) were grown in RPMI 1640 containing 10% FBS and 100 µg/ml penicillin, 100 µg/ml streptomycin. HepG2, Hep3B, MCF-7, TE-1, A549, U87, U251 and SHSY5Y cells were obtained from the American Type Culture Collection (Manassas, VA, USA). Bcap37 and LO2 cells were purchased from the Cell Bank of Chinese Academy of Sciences (Shanghai, China). All cells were incubated in a humidified atmosphere containing 5% CO2 at 37 °C.
(§2) Cells seeded in 96-well plates with 5 × 10^3 cells/well were adhered overnight and incubated with vehicle control (DMSO) or diverse concentrations of compounds for 48 h. After treatment, 20 μL of MTT (5 mg/mL) was added to each well and incubated for another 4 h at 37 °C. Then, 150 μL of DMSO/well was appended after removed the supernatant to dissolve the formed purple formazan crystals and the color absorbance was measured at 490 nm using a microplate reader (Molecular Devices, Thermo, CA, USA). The inhibition rate (%) was calculated as (A490(control) − A490(drug groups))/(A490(control) − A490(blank)) × 100 and the value of IC50 (the concentration that caused 50% inhibition of cell viability) was determined using SPSS 20.0. This experiment was measured in triplicate, independently.

A further assay deals with LO2. The experiment in a line: MTT cytotoxicity assay, normal hepatic cells. The format is cell-based. As to conditions: Homo sapiens, L02, 48 h, mean ± SD. On the procedure:
as §1, §2

For the next assay, the system named is U251. The experiment in a line: MTT cytotoxicity assay. The format is cell-based. To be noted: Homo sapiens, U-251, 48 h, mean ± SD. On the procedure:
as §1, §2

For a further assay, the system named is Bcap37. The experiment in a line: MTT cytotoxicity assay. As to conditions: Homo sapiens, 48 h, mean ± SD. The format is cell-based. How it is done: as §1, §2
For a further assay, the system named is MCF-7. The experiment in a line: MTT cytotoxicity assay. To be noted: Homo sapiens, MCF7, 48 h, mean ± SD. Type of assay: cell-based. How it is done:
as §1, §2

Another assay has as its system U87. The experiment in a line: MTT cytotoxicity assay. The format is cell-based. As to conditions: Homo sapiens, U-87 MG, 48 h, mean ± SD. On the procedure:
as §1, §2

Another assay has as its system TE-1. The experiment in a line: MTT cytotoxicity assay. The format is cell-based. As to conditions: Homo sapiens, 48 h, mean ± SD. On the procedure:
as §1, §2

Another assay concerns A549. Briefly: MTT cytotoxicity assay. Type of assay: cell-based. To be noted: Homo sapiens, 48 h, mean ± SD. How it is done:
as §1, §2

The next assay relates to SH-SY5Y. The experiment in a line: MTT cytotoxicity assay. To be noted: Homo sapiens, 48 h, mean ± SD. Type of assay: cell-based. How it is done:
as §1, §2

Another assay relates to Hep3B. Briefly: MTT cytotoxicity assay. To be noted: for IC50: Homo sapiens, 48 h, mean ± SD; for effect of inhibitor on the reduction of cell viability by daphnegiravone D: pretreated with 10 μM inhibitor 1 h, then 2 μM daphnegiravone D 48 h. Type of assay: cell-based, human. How it is done: as §1, §2
Another assay relates to HepG2. The experiment in a line: MTT cytotoxicity assay. Type of assay: cell-based, human. To be noted: for IC50: Homo sapiens, HepG2, MTT, 48 h, mean ± SD; for effect of inhibitor on the reduction of cell viability by daphnegiravone D: HepG2, MTT, pretreated with 10 μM inhibitor 1 h, then 10 μM daphnegiravone D 48 h. How it is done: as §1, §2
The test system of a further assay is HepG2 cells. The arrangement: method as in PMID 25446044. To be noted: cited from earlier work.
Setting [2] is: most cancer cell lines, read-out: IC50 values against most cancer cell lines.
The mark [3] stands for this setting: most cell lines, read-out: IC50 values against most cell lines.

With `COc1c(-c2ccc(O)c(O)c2)oc2c(CC=C(C)C)c(O)c(CC=C(C)C)c(O)c2c1=O` [Compound 2, broussoflavonol B], the half-maximal inhibitory concentration (IC50) in assay [1] (setting [2]) is around 20 µM; in the assay on LO2 it was 22.4 ± 2.63 µM; with U251 it was 19.8 ± 1.53 µM; in the assay on Bcap37, 42.4 ± 4.83 µM; with MCF-7, 19.2 ± 1.76 µM; in the assay with U87, 20.3 ± 2.08 µM. Also, the IC50 in the assay on TE-1 stood at 20 ± 2.3 µM; with A549 it was 15 ± 1.21 µM; in the assay with SH-SY5Y it was 13.5 ± 0.95 µM; in the assay on Hep3B it was 14.2 ± 1.56 µM; in the assay on HepG2, 26.1 ± 1.89 µM.
For the compound `CC(C)=CCc1c(-c2ccc(O)cc2O)oc2c3c(cc(O)c2c1=O)OC(C)(C)C=C3` [Compound 3, morusin], the half-inhibitory concentration (IC50) in assay [1] (setting [2]) was around 20 µM; with LO2, 28.2 ± 3.14 µM; with U251, 17.1 ± 2.22 µM; in the assay with Bcap37, 31 ± 2.34 µM; in the assay with MCF-7 it was 13.5 ± 2.51 µM; with U87, 23.4 ± 2.79 µM. For the same compound, the IC50 with TE-1 turned out to be 22.8 ± 1.79 µM; in the assay on A549, 23.9 ± 1.97 µM; in the assay on SH-SY5Y, 45.4 ± 3.24 µM; in the assay with Hep3B, 14.2 ± 1.87 µM; in the assay with HepG2, 9.76 ± 0.94 µM.
On to `COc1c(-c2cc(O)c3c(c2)C=CC(C)(C)O3)oc2c(CC=C(C)C)c(O)cc(O)c2c1=O` [Compound 4, daphnegiravone A], for which the concentration for half-maximal inhibition (IC50) in [1] (setting [3]) was above 50 µM; with LO2, above 100 µM; in the assay with U251 it was above 100 µM; with Bcap37 it was above 100 µM; with MCF-7 it was above 100 µM; in the assay with U87, 71 ± 4.36 µM. For the same compound, the IC50 is above 100 µM with TE-1; 66.8 ± 4.3 µM in the assay with A549; 74.4 ± 4.87 µM in the assay with SH-SY5Y; above 100 µM in the assay with Hep3B; 36.7 ± 2.21 µM in the assay with HepG2.
With `CC(C)=CCc1cc([C@@H]2CC(=O)c3ccc(O)cc3O2)c2c(c1O)OC(C)(C)CC2` [Compound 5, daphnegiravone C], the IC50 in assay [1] (setting [3]) was above 50 µM; in the assay with LO2, above 100 µM; in the assay with U251, above 100 µM; in the assay with Bcap37, above 100 µM; with MCF-7, above 100 µM; with U87, 49.9 ± 3.87 µM. Also, the IC50 was above 100 µM in the assay on TE-1; 20 ± 1.31 µM in the assay with A549; 54.8 ± 3.72 µM with SH-SY5Y; 55.4 ± 3.97 µM with Hep3B; above 100 µM with HepG2.
Take `O=c1[nH]cc(F)c(=O)[nH]1` [Compound 5FU, 5-Fluorouracil, reference compound]: the IC50 in the assay with LO2 was determined as 31.9 ± 3.78 µM; with U251, 42.6 ± 3.49 µM; in the assay with Bcap37, 44.1 ± 3.82 µM; in the assay on MCF-7, 42.3 ± 3.03 µM; in the assay on U87, 20.2 ± 1.98 µM; in the assay with TE-1 it was 26.7 ± 2.01 µM. Moreover, the IC50 stood at 31.9 ± 2.74 µM with A549, 18.6 ± 1.38 µM in the assay with SH-SY5Y, 10.4 ± 1.44 µM in the assay on Hep3B and 47.1 ± 3.68 µM with HepG2.
For `C[S+]([O-])c1ccc(-c2nc(-c3ccncc3)c(-c3ccc(F)cc3)[nH]2)cc1` (centres unmarked) [SB203580, reference compound], the “effect of inhibitor on the reduction of cell viability by daphnegiravone D” value in the assay with Hep3B and with HepG2 was “abolished” in each case.
`Oc1c2ccccc2c2c3c(cccc13)N=N2` [SP600125, reference compound]: the “effect of inhibitor on the reduction of cell viability by daphnegiravone D” value in the assay with Hep3B and in the assay with HepG2 was “exacerbated” throughout.
As to Kurzphenol C, the “inhibitory effect on HepG2 cells” value in the assay on HepG2 cells is “weak inhibitory effect”.
